Each structure is given as a SMILES string.

Holding throughout (type): biochemical
One assay addresses T1, Axl (h) (Homo sapiens, UniProt P30530).
T1 sequence (P30530 26-894): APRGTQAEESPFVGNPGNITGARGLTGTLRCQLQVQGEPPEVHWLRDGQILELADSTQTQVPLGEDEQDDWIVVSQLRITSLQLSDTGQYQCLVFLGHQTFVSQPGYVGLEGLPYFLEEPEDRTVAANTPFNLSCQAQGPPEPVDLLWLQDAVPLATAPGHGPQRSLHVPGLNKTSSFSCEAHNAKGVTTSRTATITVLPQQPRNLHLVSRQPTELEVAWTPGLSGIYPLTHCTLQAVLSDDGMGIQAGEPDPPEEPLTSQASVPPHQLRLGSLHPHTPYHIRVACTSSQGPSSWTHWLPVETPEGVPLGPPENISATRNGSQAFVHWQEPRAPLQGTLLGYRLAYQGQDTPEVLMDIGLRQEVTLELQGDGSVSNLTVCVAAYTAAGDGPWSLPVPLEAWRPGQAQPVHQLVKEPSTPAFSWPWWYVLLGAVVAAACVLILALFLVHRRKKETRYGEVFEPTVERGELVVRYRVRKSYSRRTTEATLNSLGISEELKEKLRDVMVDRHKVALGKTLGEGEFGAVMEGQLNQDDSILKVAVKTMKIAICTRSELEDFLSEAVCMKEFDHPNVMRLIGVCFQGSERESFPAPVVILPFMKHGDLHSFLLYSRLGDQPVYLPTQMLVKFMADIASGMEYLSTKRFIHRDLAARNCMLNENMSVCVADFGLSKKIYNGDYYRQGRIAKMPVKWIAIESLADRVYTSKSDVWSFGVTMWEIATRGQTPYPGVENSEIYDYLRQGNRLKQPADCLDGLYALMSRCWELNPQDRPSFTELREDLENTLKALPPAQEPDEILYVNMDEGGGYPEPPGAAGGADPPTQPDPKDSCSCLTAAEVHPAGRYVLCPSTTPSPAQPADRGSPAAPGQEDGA
Nature of the assay: Enzymatic activity assay, Axl (h), [γ-33P]-ATP filter assay. Conditions: 10 μM ATP, 40 min room temperature; read-out: Inhibitory activity IC50 Axl(h). On the procedure:
(§1) Compounds were each dissolved in 100% DMSO to prepare stock solutions with a maximum concentration of 500 μM.
(§2) Compound working solutions (50×) were prepared by diluting a compound stock solution to a final concentration of 500, 150, 50, 15, 5, 1.5, 0.5, 0.15 and 0.05 μM.
An enzyme solution with a final concentration of 1.7 nM was prepared by dissolving Axl (h) enzyme in a mixture of 8 mM MOPS (pH 7.0), 0.2 mM EDTA and 250 μM KKSRGDYMTMQIG. A Mg/ATP mixture of 10 mM magnesium acetate and 10 μM [γ-^33P]-ATP was used to activate the enzymatic reaction.
(§3) A compound working solution was added to a 384-well plate, with final concentrations of 10,000, 3,000, 1,000, 300, 100, 30, 10, 3 and 1 nM, and then different enzymatic reaction solutions prepared according to the above conditions were added. The reaction solutions were incubated at room temperature for 40 min, and then 0.5% phosphoric acid solutions were added to terminate the reaction. 10 μL of the reaction solution was added dropwise to P30 filter paper, washed 4 times with a 0.425% phosphoric acid solution and once with methanol, and then placed in a scintillation counter for detection. Gray analysis was performed on the results with Image J software, and IC50 values were calculated with GraphPad 5.0 software.

In the next assay the target is T2, Mer (h) (Homo sapiens, UniProt Q12866).
T2 sequence (Q12866 21-999): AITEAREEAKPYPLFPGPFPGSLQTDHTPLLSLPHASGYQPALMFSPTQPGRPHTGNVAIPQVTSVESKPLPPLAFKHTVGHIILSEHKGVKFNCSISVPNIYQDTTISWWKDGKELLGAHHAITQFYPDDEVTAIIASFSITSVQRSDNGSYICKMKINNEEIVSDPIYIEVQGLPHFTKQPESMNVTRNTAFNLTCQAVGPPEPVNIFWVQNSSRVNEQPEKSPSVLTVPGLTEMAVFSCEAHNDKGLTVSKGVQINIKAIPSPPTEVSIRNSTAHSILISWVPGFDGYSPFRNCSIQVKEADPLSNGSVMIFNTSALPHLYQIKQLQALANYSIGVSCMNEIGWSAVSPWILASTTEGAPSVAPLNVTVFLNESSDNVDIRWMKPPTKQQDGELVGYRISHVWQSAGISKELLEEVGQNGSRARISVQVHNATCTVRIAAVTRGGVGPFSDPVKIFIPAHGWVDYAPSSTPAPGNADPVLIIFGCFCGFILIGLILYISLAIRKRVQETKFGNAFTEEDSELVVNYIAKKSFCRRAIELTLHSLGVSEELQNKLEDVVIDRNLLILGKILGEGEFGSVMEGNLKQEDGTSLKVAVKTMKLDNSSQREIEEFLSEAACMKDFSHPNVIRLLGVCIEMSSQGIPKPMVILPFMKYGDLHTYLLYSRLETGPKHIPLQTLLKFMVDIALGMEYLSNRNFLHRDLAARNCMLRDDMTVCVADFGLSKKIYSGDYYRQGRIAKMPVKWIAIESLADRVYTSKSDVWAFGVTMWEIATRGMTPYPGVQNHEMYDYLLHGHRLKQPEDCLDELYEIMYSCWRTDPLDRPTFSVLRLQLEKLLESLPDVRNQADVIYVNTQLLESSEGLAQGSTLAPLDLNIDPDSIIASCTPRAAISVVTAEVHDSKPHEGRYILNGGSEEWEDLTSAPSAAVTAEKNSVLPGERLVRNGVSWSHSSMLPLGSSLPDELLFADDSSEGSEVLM
The assay can be described thus: Enzymatic activity assay, Mer (h), [γ-33P]-ATP filter assay. Conditions: 10 μM ATP, 40 min room temperature; read-out: Inhibitory activity IC50 Mer(h). On the procedure:
as §1, §2
An enzyme solution with a final concentration of 3.1 nM was prepared by dissolving Mer (h) enzyme in a mixture of 8 mM MOPS (pH 7.0), 0.2 mM EDTA, 30 mM NaCl and 250 μM GGMEDIYFEFMGGKKK. A Mg/ATP mixture of 10 mM magnesium acetate and 10 μM [γ-^33P]-ATP was used to activate the enzymatic reaction.
as §3

In a further assay the target is T3, Tyro-3 (h) (Homo sapiens, UniProt Q06418).
T3 sequence (Q06418 41-890): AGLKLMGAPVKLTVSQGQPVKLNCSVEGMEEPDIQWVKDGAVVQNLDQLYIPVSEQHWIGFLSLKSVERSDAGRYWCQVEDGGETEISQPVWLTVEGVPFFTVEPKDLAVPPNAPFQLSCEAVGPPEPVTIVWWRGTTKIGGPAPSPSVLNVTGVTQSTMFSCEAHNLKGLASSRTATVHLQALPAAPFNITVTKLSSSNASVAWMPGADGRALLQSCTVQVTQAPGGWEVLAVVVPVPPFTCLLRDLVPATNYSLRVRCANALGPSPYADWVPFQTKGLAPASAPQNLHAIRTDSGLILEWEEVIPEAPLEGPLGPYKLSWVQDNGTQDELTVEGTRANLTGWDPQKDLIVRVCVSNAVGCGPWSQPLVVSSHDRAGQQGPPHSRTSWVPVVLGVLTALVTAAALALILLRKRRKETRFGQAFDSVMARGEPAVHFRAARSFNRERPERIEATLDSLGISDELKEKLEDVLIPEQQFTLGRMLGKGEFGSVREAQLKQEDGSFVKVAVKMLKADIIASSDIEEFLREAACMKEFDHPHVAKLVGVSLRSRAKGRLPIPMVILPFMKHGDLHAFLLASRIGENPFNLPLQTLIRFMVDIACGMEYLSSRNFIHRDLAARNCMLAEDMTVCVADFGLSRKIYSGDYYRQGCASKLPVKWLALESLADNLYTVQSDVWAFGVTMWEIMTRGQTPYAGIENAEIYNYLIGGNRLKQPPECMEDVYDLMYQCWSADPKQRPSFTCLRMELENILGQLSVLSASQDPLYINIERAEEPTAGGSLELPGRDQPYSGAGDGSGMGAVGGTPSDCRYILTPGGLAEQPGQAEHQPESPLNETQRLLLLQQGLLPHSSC
The assay can be described thus: Enzymatic activity assay, Tyro-3 (h), [γ-33P]-ATP filter assay. Conditions: 10 μM ATP, 40 min room temperature; read-out: Inhibitory activity IC50 Tyro-3(h). On the procedure:
as §1, §2
An enzyme solution with a final concentration of 38 nM was prepared by dissolving Tyro3 (h) enzyme in a mixture of 8 mM MOPS (pH 7.0), 0.2 mM EDTA, 1 mM MnCl2 and 250 μM KVEKIGEGTYGVVYK. A Mg/ATP mixture of 10 mM magnesium acetate and 10 μM [γ-^33P]-ATP was used to activate the enzymatic reaction.
as §3

In the case of `COc1cc2nccc(Oc3ccc(NC(=O)c4nn(CC5CCSCC5)cc(-c5ccc(C)cc5)c4=O)nc3)c2cc1OC` [Compound 21, N-(5-((6,7-dimethoxyquinolin-4-yl)oxy)pyridin-2-yl)-4-oxo-1-((tetrahydro-2H-thiopyran-4-yl)methyl)-5-(p-tolyl)-1,4-dihydropyridazin-3-carboxamide], the results for the IC50 at Axl (h), at Mer (h) and at Tyro-3 (h) were 19 nM, 1 nM and 29 nM, respectively.
For `COc1cc2nccc(Oc3cnc(NC(=O)c4cn(CC5CCSCC5)cc(-c5ccc(C)cc5)c4=O)nc3)c2cc1OC` [Compound 22, N-(5-((6,7-dimethoxyquinolin-4-yl)oxy)pyrimidin-2-yl)-4-oxo-1-((tetrahydro-2H-thiopyran-4-yl)methyl)-5-(p-tolyl)-1,4-dihydropyridin-3-carboxamide] the same measures were 16 nM, 5 nM and 103 nM.
In the same order, the values of `COc1cc2nccc(Oc3cnc(NC(=O)c4nn(CC5CCSCC5)cc(-c5ccc(C)cc5)c4=O)nc3)c2cc1OC` [Compound 23, N-(5-((6,7-dimethoxyquinolin-4-yl)oxy)pyrimidin-2-yl)-4-oxo-1-((tetrahydro-2H-thiopyran-4-yl)methyl)-5-(p-tolyl)-1,4-dihydropyridazin-3-carboxamide] are 9 nM, 8 nM and 33 nM.
Consider `COc1ccc(-c2cnc(N)c(-c3ccc(NC(=O)c4cc(-c5ccc(C)cc5)cn(CC5CCOCC5)c4=O)cc3)c2)cc1OC` [Compound 35, N-(4-(2-amino-5-(3,4-dimethoxyphenyl)pyridin-3-yl)phenyl)-2-oxo-1-((tetrahydro-2H-pyran-4-yl)methyl)-5-(p-tolyl)-1,2-dihydropyridin-3-carboxamide], for which the IC50 on Axl (h) was 44 nM.
On the same count and under the same terms, under `COc1ccc(-c2cnc(N)c(-c3ccc(NC(=O)c4cn(CC5CCOCC5)c(=O)n(-c5ccc(C)cc5)c4=O)cc3)c2)cc1OC` [Compound 37, N-(4-(2-amino-5-(3,4-dimethoxyphenyl)pyridin-3-yl)phenyl)-2,4-dioxo-1-((tetrahydro-2H-pyran-4-yl)methyl)-3-(p-tolyl)-1,2,3,4-tetrahydropyrimidin-5-carboxamide] stands 57 nM; under `COc1cc2nccc(O[C@H]3CC[C@@H](NC(=O)c4cn(CC5CCOCC5)cc(-c5ccc(C)cc5)c4=O)CC3)c2cc1OC` [Compound 38, N-((cis)-4-((6,7-dimethoxyquinolin-4-yl)oxy)cyclohexyl)-4-oxo-1-((tetrahydro-2H-pyran-4-yl)methyl)-5-(p-tolyl)-1,4-dihydropyridin-3-carboxamide], 22 nM.

Values taken from US20210177828A1, “TAM FAMILY KINASE /AND CSF1R KINASE INHIBITOR AND USE THEREOF” (Nanjing Transthera Biosciences Co., Ltd., priority 2018, published 2021).
